The values below come from US10240154B2, “RNA products and uses thereof” (IFOM Fondazione Istituto FIRC di Oncologia Molecolare, priority 2012, dated 2019).

In data set [1] the test system is HeLa cells. The data set is described as follows: DDR foci formation in the RNase A in vitro cell system with translation inhibitor. Conditions: data not shown. It is filed as cell-based, human. Here is the method: (§1) Cells were plated on poly-D-lysinated coverslips and irradiated with 2Gy of IR. 1 h after HeLa cells were permeabilized with 2% Tween 20 in PBS for 10 minutes at RT while I-Sce I-transfected NIH2/4 cells were permeabilized in 0.5% Tween 20 in PBS for 10 minutes at RT. RNase A treatment was carried out in 1 ml of 1 mg/ml Ribonuclease A from bovine pancreas (Sigma-Aldrich cat n: R5503) in PBS for 25 minutes at room temperature. After RNase A digestion, the samples were washed with PBS, treated with 80 units of RNase inhibitor (RNaseOUT Invitrogen 40 units/μl) and 2 μg/ml of α-amanitin (SIGMA) for 15 minutes in a total volume of 70 μl. […] Then, RNase A-treated cells were incubated with total, small or gel extracted RNA, or the same amount of tRNA, for additional 15 minutes at room temperature. […] Cell were then fixed with 4% paraformaldehyde or methanol:acetone 1:1.

The subject of data set [2] is Dicer. Conditions: RNA with aptamer-binding site for paromomycin; according to the amount of ligand; cited from earlier work.
Data set [3] relates to DDRNAs with telomeric sequence. The data set is described as follows: LNA transfection, 53BP1 foci after telomere uncapping in T19 fibrosarcoma cells. The format is cell-based, human. Here is the method: (§2) (for the experiments in FIGS. 35-36). T19 fibrosarcoma cells (van Steensel, Cell 1998) were grown in DMEM supplemented with 10% fetal bovine serum, 1% glutamine and doxycycline (100 ng/ml). For induction, cells were grown without doxycycline for at least 7-8 days. CRE-ER TRF2^flox/flow MEFs (Lazzerini Denchi and de Lange, Nature 2007) were grown in DMEM supplemented with 10% fetal bovine serum and 1% glutamine. For induction, cells were grown in presence of 4-hydroxytamoxifen (600 nM) for 48 hours. For BrdU incorporation, cells were labeled with 10 μg/ml bromodeoxyuridine (BrdU, Sigma) for 16 hours and incorporation was evaluated by immunofluorescence after DNA denaturation.
(§3) (for the experiments in FIGS. 35-36). Cells were fixed with 1:1 methanol/acetone solution for 2 minutes at room temperature, or 4% paraformaldehyde for 10 minutes at room temperature. After blocking, cells were stained with primary antibodies for 1 h at room temperature, washed and incubated with conjugated secondary antibodies for 40 minutes at RT. Nuclei were stained with DAPI (1 μg/ml).
(§4) (for the experiments in FIG. 36). LNA were first boiled at 90° C. for 5 minutes, chilled at 4° C. for 5 minutes and transfected with Lipofectamine RNAiMAX (Invitrogen) at the final concentration of 200 nM.

Data set [4] concerns DDRNAs with telomeric sequence. The data set is described as follows: LNA transfection, BrdU incorporation after telomere uncapping in T19 fibrosarcoma cells. Conditions: LNA 200 nM, 3 days following LNA transfection. The format is cell-based, human. Here is the method: as §2, §4
On the technique in general: Incorporation of labelled thymidine or its analogues reports DNA synthesis.

Data set [5] concerns NIH2/4 cells. Nature of the data set: Short RNA sequencing of NIH2/4 cells after Dicer or Drosha knockdown by shRNA. It is filed as cell-based, mouse. Conditions: for miRNA expression (spike-normalized reads mapping to miRBase): NIH2/4, cut and uncut, compared to wildtype; for fraction of 22-23 nt vs total short RNAs at the locus: NIH2/4, uncut and cut conditions. Here is the method:
Nuclei were isolated the day after the adenoviral infection.
Nuclear RNA shorter than 200 nt was purified using mirVana™ microRNA Isolation Kit. RNA quality was checked on a small RNA chip (Agilent) before library preparation (Supplementary FIG. 23a). For Illumina hi Seq Version3 sequencing, spike RNA was added to each RNA sample in the RNA:spike ratio of 10,000:1 before library preparation and libraries for Illumina GA IIX were prepared without spike. An improved short RNA library preparation protocol was used to prepare libraries^68. In brief, adenylated 3′ adapters were ligated to 3′ ends of 3′-OH short RNAs using a truncated RNA ligase enzyme followed by 5′ adapter ligation to 5′-monophosphate ends using RNA ligase enzyme, ensuring specific ligation of undegraded short RNAs. cDNA was prepared using a primer specific to the 3′ adapter in the presence of Dimer eliminator and amplified for 12-15 PCR cycles using a special forward primer targeting the 5′ adapter containing additional sequence for sequencing and a reverse primer targeting the 3′ adapter. The amplified cDNA library was run on a 6% polyacrylamide gel and the 100 bp band containing cDNAs up to 33 nt was extracted using standard extraction protocols. Libraries were sequenced after quality check on a DNA high sensitivity chip (Agilent). Multiplexed barcode sequencing was performed on Illumina GA-IIX (35 bp Single end reads) and Illumina Hi seq version3 (51 bp single end reads). Sequences of all the DDRNAs identified in this study will be available for free downloading by the time of publication at short read archive.
Statistical significance of downregulation of normalized miRNAs in Dicer and Drosha knockdown samples were calculated using the Wilcoxon signed-rank test.
The differences in the fraction of 22-23 nt vs total short RNAs at the locus between the wildtype, Dicer knockdown, and Drosha knockdown before and after cut was calculated by fitting a negative binomial model to the sRNA count data and performing a likelihood ratio test, keeping the fraction of 22-23 nt vs total short RNAs at the locus fixed across conditions under the null hypothesis and allowing it to vary between conditions under the alternative hypothesis.

Data set [6] has as its system HEK293 cells. Nature of the data set: G2/M checkpoint assay in HEK293 cells after shRNA knockdown. The format is cell-based, human. Conditions: HEK293, 12, 24 and 36 hours post irradiation (5Gy). Here is the method:
HEK 293 calcium phosphate transfected cells were irradiated with 5Gy and allowed to respond to IR-induced DNA damage in a cell culture incubator for 12, 24 or 36 hours. Then, at these three time points post irradiation, together with not irradiated cells, 1×10^6 cells were collected for Fluorescence Activated Cell Sorting (FACS) analysis, fixed in 75% ethanol in PBS, 30 minutes on ice. Afterwards, cells were treated 12 hours with 40 μg/ml of RNase A and incubated at least 1 h with propidium iodide (PI). FACS profiles were obtained by the analysis of at least 5×10^5 cells. In the complementation experiments HEK 293 were transfected using Lipofectamine RNAi Max (Invitrogen) and 48 hours later irradiated with 5Gy. Cells were then treated as explained above.

Data set [7] addresses T1, RNA polymerase II (Homo sapiens, UniProt P24928).
T1 construct: endogenous in cells; host or cells: HeLa
The data set is described as follows: Spontaneous 53BP1 foci reformation after RNase A treatment in irradiated HeLa cells. Conditions: irradiated (2Gy) HeLa, RNase A then RNaseOUT, with α-amanitin for 10 or 45 minutes. It is filed as cell-based. Here is the method: as §1, with “After RNase A digestion, the samples were washed with PBS, treated with 80 units of RNase inhibitor (RNaseOUT Invitrogen 40 units/μl) and 2 μg/ml of α-amanitin (SIGMA) for 15 minutes in a total volume of 70 μl.” left out

Data set [8] has as its target T2, RNA polymerase II (Mus musculus, UniProt P08775).
T2 construct: endogenous in cells; host or cells: NIH2/4 mouse cells
Nature of the data set: 53BP1 focus reformation at the I-Sce I-induced DSB in RNase A-treated NIH2/4 cells. It is filed as cell-based. Conditions: data not shown. Here is the method:
as §1

For data set [9], the system named is NIH2/4 cells. The data set is described as follows: RNase A treatment of I-Sce I cut NIH2/4 cells, foci colocalizing with Cherry-Lac. It is filed as cell-based, mouse. Here is the method:
as §1

The test system of data set [10] is TRF2^flox/flox MEFs. The data set is described as follows: RNase A treatment of TRF2 knockout MEFs with uncapped telomeres. It is filed as cell-based, mouse. Conditions: RNase A vs BSA. Here is the method:
as §2, §3
(for the experiments in FIG. 35). CRE-ER TRF2^flox/flox MEFs (Lazzerini Denchi and de Lange, Nature 2007) were induced to generate TRF2 knockout and telomere uncapping. 48 hours later cells were permeabilized with 0.6% Tween 20 in PBS for 15 min at room temperature.

The subject of data set [11] is HeLa cells. The data set is described as follows: RNase A treatment of irradiated permeabilized HeLa cells, DDR foci. Conditions: irradiated HeLa cells (2Gy), RNase A 1 mg/ml. The format is cell-based, human. Here is the method:
as §1

[12] abbreviates: induced (Flag+) T19 cells, LNA 200 nM transfected at day 13 from induction, compared to control LNA.
The mark [13] stands for this setting: Flag+ T19 cells, BrdU 16 hours, compared to Cntrl LNA.
[14] abbreviates: uninduced (Flag−) T19 cells, LNA 200 nM.

On to `C[C@@H]1C[C@@H]([C@H](O)CC2CC(=O)NC(=O)C2)C(=O)[C@@H](C)C1` [cyclohexamide], for which, in [1], the DDR foci formation entry was “no impact on DDR foci formation”.
On to `NC[C@@H]1O[C@H](O[C@H]2[C@@H](O)[C@H](O[C@@H]3[C@@H](O)[C@H](N)C[C@H](N)[C@H]3O[C@H]3O[C@H](CO)[C@@H](O)[C@H](O)[C@H]3N)O[C@@H]2CO)[C@H](N)[C@@H](O)[C@@H]1O` [paromomycin], for which, in data set [2], the Dicer activity entry was “decrease of Dicer activity”.
In the case of “LNA 3: LNA, SEQ ID NO: 59, ACTGATAGGGAGTGGTAAACT; unrelated control in FIG. 36 (LNA-modified oligonucleotide, LNA positions not given here)”, the 53BP1 foci-positive cells entry in [3] (setting [12]) is listed as “no effect”.
As for “LNA 5: LNA, SEQ ID NO: 61, CCCTAACCCTAACCCTAACCC; antisense telomeric sequence; control in FIG. 34”, the “percentage of BrdU-positive cells” value in data set [4] (setting [13]) is “significant increase”; in data set [4] (Flag− T19 cells), “no difference is observed”. The values for the 53BP1 foci-positive cells entry in data set [3] (setting [12]) and in [3] (setting [14]) were “decrease in DDR-positive cells” and “no difference was observed”, respectively.
On to “LNA 6: LNA, SEQ ID NO: 62, GGGTTAGGGTTAGGGTTAGGG; sense telomeric sequence (LNA)”, for which the “percentage of BrdU-positive cells” value in data set [4] (setting [13]) is recorded as “significant increase”; in data set [4] (Flag− T19 cells) it was “no difference is observed”. In addition, the 53BP1 foci-positive cells result in data set [3] (setting [12]) is on record as “decrease in DDR-positive cells”; in data set [3] (setting [14]), “no difference was observed”.
For “shDicer: shRNA for mouse Dicer, SEQ ID NO:3, lentiviral pLKO.1 (CCGGGCCTCACTTGACCTGAAGTATCTCGAGATACTTCAGGTCAAGTGAGGCTTTTT)”, in [5], the “miRNA expression (spike-normalized reads mapping to miRBase)” value is given as “significantly lower expressed” and the “fraction of 22-23 nt vs total short RNAs at the locus” value was “decreases”.
Turning to “shDrosha: shRNA for mouse Drosha, SEQ ID NO:4, lentiviral pLKO.1 (CCGGCCTGGAATATGTCCACACTTTCTCGAGAAAGTGTGGACATATTCCAGGTTTTTG)”, in [5], the “miRNA expression (spike-normalized reads mapping to miRBase)” value is given as “significantly lower expressed” and the “fraction of 22-23 nt vs total short RNAs at the locus” value is “decreases”.
“shRNA against p53: pRETROSUPER shp53, short hairpin SEQ ID NO:2 (guide AGTAGATTACCACTGGAGTCTT)”: the “G2/M checkpoint (FACS cell-cycle profile)” value in data set [6] is given as “did not arrest upon DNA damage”.
With α-amanitin, the 53BP1-foci reformation result in data set [7] is “prevents 53BP1-foci reformation”. Also, the “53BP1 focus reformation at the I-Sce I-induced DSB” value in data set [8] is “prevents 53BP1 focus reformation”.

B1: RNase A: Ribonuclease A from bovine pancreas (Sigma-Aldrich R5503), broad-specificity RNA nuclease (protein, UniProt P61823 27-150, looked up)
Ribonuclease pancreatic: KETAAAKFERQHMDSSTSAASSSNYCNQMMKSRNLTKDRCKPVNTFVHESLADVQAVCSQKNVACKNGQTNCYQSYSTMSITDCRETGSSKYPNCAYKTTQANKHIIVACEGNPYVPVHFDASV
In the case of B1, in [9], the “53BP1, pATM and MRE11 foci colocalizing with the Cherry-Lac focus” value is “lost”. In addition, in data set [10], the 53BP1 foci result was “disassemble” and the γH2AX foci entry was “stable”. Besides, in [11], the “53BP1, pATM, pS/TQ and MDC1 foci” value is recorded as “strongly reduced”; the γH2AX accumulation result is on record as “only slightly affected”.
